Data reported in patent US4107165A, “Tris[tetrahydroisoquinoline] compounds” (Endo Laboratories, priority 1976, dated 1978).

How the values were obtained:
whole blood clot = whole blood clot lysis method (fibrinolytic activity), blood from rats given compound intraperitoneally; type: in vivo; conditions: Rattus norvegicus, ip, 4 h, intraperitoneal, blood diluted 1:10, clotted with thrombin, 37° C, four hours, read-out: ED50 (dose which causes lysis of 50% of the clot)
Protocol: Certain representative compounds within the scope of the present invention have been tested for fibrinolytic activity by the whole blood clot lysis method, as modified from the procedure of Billimoria et al.^1 In this method, blood from rats given a fibrinolytic compound intraperitoneally is taken and diluted 1:10. A standard amount is clotted with thrombin, incubated at 37° C for four hours, and the amount of clot that has lysed is determined. […] These ED50 values for the various compounds tested are set forth in the following table, each of the compounds being identified by name and by the number of the ensuing example in which its synthesis is described. […] ^1 Billimoria, […]., James, […]., Lancet II, 471 (1959)

rats = assay: toxicity, intraperitoneal administration to rats; type: in vivo; conditions: at 0.01 mg./kg. and at 10 mg./kg.
Description: An outstanding feature of the compounds of this invention is their relative lack of toxicity. Although they are active at very low dose levels, it is possible to exceed minimum effective levels by wide margins without encountering serious adverse reactions. This permits the compounds to be used within wide limits without concern about undesirable side effects, as are so frequently encountered upon inadvertent overdosage of other substances of great potency.

[1] = system: ADP-induced platelet aggregation; assay: inhibition of ADP-induced platelet aggregation in platelet rich plasma; type: cell-based; conditions: 5 min; human platelet rich plasma, 37° C, five minutes incubation prior to ADP; read-out: ED50 (amount which reduces platelet aggregation by 50%)
Protocol: Another selection of representative compounds within the scope of the present invention, including some listed in the previous table, have been tested for their ability to inhibit platelet aggregation. Citrated whole blood from human volunteers, who had not taken any medicine for the previous week, was centrifuged to obtain platelet rich plasma. On addition of ADP (adenosine diphosphate) to this platelet rich plasma, incubated at 37° C with constant stirring, in an aggregometer, optical density changes can be observed which are caused by platelet aggregation. Thus, the extent of ADP-induced platelet aggregation is determined for each sample of blood used. Compounds to be tested were incubated for five minutes prior to the addition of ADP. The ED50 of a compound is that amount, in γ/ml, which reduces platelet aggregation by 50% under the above conditions.

Compound: COc1cc2c(cc1OC)C(CCCCC(CCC1NCCc3cc(OC)c(OC)cc31)CCC1NCCc3cc(OC)c(OC)cc31)NCC2.Cl.Cl.Cl (stereo not drawn) [Example 1.1, 1,1'-{3-[2-(1,2,3,4-tetrahydro-6,7-dimethoxy-1-isoquinolinyl)ethyl]heptamethylene}bis[1,2,3,4-tetrahydro-6,7-dimethoxyisoquinoline] trihydrochloride]
- ED50 (whole blood clot): 0.02 mg/kg
- toxicity (rats): without producing toxicity
- IC50 [1]: 6 µg/mL
